Laboratory results as given in paper PMC10653547, “Synergistic effect of two antimicrobial peptides, BP203 and MAP-0403 J-2 with conventional antibiotics against colistin-resistant Escherichia coli and Klebsiella pneumoniae clinical isolates” (PLOS ONE, 2023).

Tests used:
[1] = test system: colistin-resistant E. coli clinical isolates; assay: Disk diffusion antimicrobial susceptibility testing (CLSI); format: cell-based, Escherichia coli; conditions: for %Resistance: ten E. coli isolates, disk diffusion
Experimental: (§1) Ten non-duplicate clinical isolates of colistin-resistant E. coli (EC) and ten non-duplicate clinical isolates of colistin-resistant K. pneumoniae (KP) were obtained from the bacterial repository of the Division of Infectious Diseases and Tropical Medicine, Department of Medicine, Faculty of Medicine Siriraj Hospital, Mahidol University. The species identification was conducted through standard biochemical tests. Antimicrobial susceptibility testing was carried out using the disk diffusion method following CLSI guidelines. Additionally, the assessment of colistin resistance in all isolates was performed by broth microdilution following CLSI recommendations. […] The amino acid sequences of BP203 and MAP-0403 J-2 were retrieved from previous studies. These peptides are BP100 and MAP-0403 analogs, respectively. […] Antibiotic disks and defibrinated sheep blood were obtained from Oxoid (Basingstoke, UK). All culture media were purchased from Becton Dickinson (Frankin Lakes, NJ, USA). All chemicals were obtained from Sigma-Aldrich (St. Louis, MO, USA).

[2] = test system: colistin-resistant K. pneumoniae clinical isolates; assay: as above; format: cell-based, Klebsiella pneumoniae; conditions: for %Resistance: ten K. pneumoniae isolates, disk diffusion; for Interpreted results of disk diffusion: key: R: resistant; I: intermediate; SDD: susceptible-dose dependent; S: sensitive
Experimental: as §1

C[C@@H](O)[C@H]1C(=O)N2C(C(=O)O)=C(S[C@@H]3CN[C@H](C(=O)Nc4cccc(C(=O)O)c4)C3)[C@H](C)[C@H]12 [ETP, ertapenem]
Interpreted results of disk diffusion ([1]; EC-01): S | Interpreted results of disk diffusion ([1]; EC-02): S | Interpreted results of disk diffusion ([1]; EC-03): S | Interpreted results of disk diffusion ([1]; EC-04): S | Interpreted results of disk diffusion ([1]; EC-05): S | Interpreted results of disk diffusion ([1]; EC-06): S | Interpreted results of disk diffusion ([1]; EC-07): S | Interpreted results of disk diffusion ([1]; EC-08): S | Interpreted results of disk diffusion ([1]; EC-09): S | Interpreted results of disk diffusion ([1]; EC-10): S | %Resistance [1]: 0% | Interpreted results of disk diffusion ([2]; KP-01): R | Interpreted results of disk diffusion ([2]; KP-02): R | Interpreted results of disk diffusion ([2]; KP-03): R | Interpreted results of disk diffusion ([2]; KP-04): R | Interpreted results of disk diffusion ([2]; KP-05): R | Interpreted results of disk diffusion ([2]; KP-06): R | Interpreted results of disk diffusion ([2]; KP-07): R | Interpreted results of disk diffusion ([2]; KP-08): R | Interpreted results of disk diffusion ([2]; KP-09): R | Interpreted results of disk diffusion ([2]; KP-10): R | %Resistance [2]: 100%

CO/N=C(\C(=O)N[C@@H]1C(=O)N2C(C(=O)[O-])=C(C[N+]3(C)CCCC3)CS[C@H]12)c1csc(N)n1 [FEP, cefepime]
Interpreted results of disk diffusion ([1]; EC-01): R | Interpreted results of disk diffusion ([1]; EC-02): R | Interpreted results of disk diffusion ([1]; EC-03): R | Interpreted results of disk diffusion ([1]; EC-04): R | Interpreted results of disk diffusion ([1]; EC-05): SDD | Interpreted results of disk diffusion ([1]; EC-06): S | Interpreted results of disk diffusion ([1]; EC-07): R | Interpreted results of disk diffusion ([1]; EC-08): SDD | Interpreted results of disk diffusion ([1]; EC-09): R | Interpreted results of disk diffusion ([1]; EC-10): R | %Resistance [1]: 70% | Interpreted results of disk diffusion ([2]; KP-01): R | Interpreted results of disk diffusion ([2]; KP-02): R | Interpreted results of disk diffusion ([2]; KP-03): R | Interpreted results of disk diffusion ([2]; KP-04): R | Interpreted results of disk diffusion ([2]; KP-05): R | Interpreted results of disk diffusion ([2]; KP-06): R | Interpreted results of disk diffusion ([2]; KP-07): R | Interpreted results of disk diffusion ([2]; KP-08): R | Interpreted results of disk diffusion ([2]; KP-09): R | Interpreted results of disk diffusion ([2]; KP-10): R | %Resistance [2]: 100%

C[C@@H]1O[C@@H]1P(=O)(O)O [FOS, fosfomycin]
Interpreted results of disk diffusion ([1]; EC-01): S | Interpreted results of disk diffusion ([1]; EC-02): S | Interpreted results of disk diffusion ([1]; EC-03): S | Interpreted results of disk diffusion ([1]; EC-04): R | Interpreted results of disk diffusion ([1]; EC-05): S | Interpreted results of disk diffusion ([1]; EC-06): S | Interpreted results of disk diffusion ([1]; EC-07): S | Interpreted results of disk diffusion ([1]; EC-08): S | Interpreted results of disk diffusion ([1]; EC-09): S | Interpreted results of disk diffusion ([1]; EC-10): S | %Resistance [1]: 10% | Interpreted results of disk diffusion ([2]; KP-01): S | Interpreted results of disk diffusion ([2]; KP-02): R | Interpreted results of disk diffusion ([2]; KP-03): I | Interpreted results of disk diffusion ([2]; KP-04): R | Interpreted results of disk diffusion ([2]; KP-05): S | Interpreted results of disk diffusion ([2]; KP-06): R | Interpreted results of disk diffusion ([2]; KP-07): S | Interpreted results of disk diffusion ([2]; KP-08): R | Interpreted results of disk diffusion ([2]; KP-09): R | Interpreted results of disk diffusion ([2]; KP-10): R | %Resistance [2]: 60%
